The RepoRT retention time repository (doi:10.1016/j.jchromb.2020.122105)

Key:
Conditions in all cases: stereoisomer not certain
[1] = RP, Waters ACQUITY UPLC BEH C18, 100 × 2.1 mm, 1.7 µm, 0.1 mL/min, estimated dead time 2.2 min; A: water + 0.1% formic acid, pH 3; B: methanol + 0.1% formic acid, pH 3; gradient (min/%B) 0/5 5/5 25/100 30/100 30.1/5 35/5
[2] = RP, Waters CORTECS T3, 100 × 2.1 mm, 2.7 µm, 0.2 mL/min, estimated dead time 1.1 min; A: water + 0.1% formic acid, pH 3; B: methanol + 0.1% formic acid, pH 3; gradient (min/%B) 0/0 1/0 6/5 30/100 35/100 35.1/0 40/0
[3] = RP, Waters ACQUITY UPLC BEH C18, 100 × 2.1 mm, 1.7 µm, 0.1 mL/min, estimated dead time 2.2 min; A: water + 0.1% formic acid, pH 3; B: methanol + 0.1% formic acid, pH 3; gradient (min/%B) 0/5 5/5 25/95 25.1/100 35/100 35.1/5 45/5
[4] = HILIC, Merck SeQuant ZIC-HILIC, 150 × 2.1 mm, 5 µm, 0.75 mL/min, estimated dead time 0.44 min; A: water + 10 mM ammonium formate, pH 6; B: 5% water + 95% acetonitrile + 10 mM ammonium formate, pH 6; gradient (min/%B) 0/95 5/95 20/57 25/57 30/95 40/95
[5] = RP, Waters CORTECS T3, 100 × 2.1 mm, 2.7 µm, 0.15 mL/min, estimated dead time 1.5 min; A: water + 0.1% formic acid, pH 3; B: methanol + 0.1% formic acid, pH 3; gradient (min/%B) 0/0 1/0 6/5 30/100 35/100 35.1/0 40/0
[6] = RP, Waters CORTECS T3, 100 × 2.1 mm, 2.7 µm, 0.3 mL/min, estimated dead time 0.73 min; A: water + 0.1% formic acid, pH 3; B: methanol + 0.1% formic acid, pH 3; gradient (min/%B) 0/0 5/0 25/100 30/100 30.1/0 35/0
[7] = RP, Waters CORTECS T3, 100 × 2.1 mm, 2.7 µm, 0.3 mL/min, estimated dead time 0.73 min; A: water + 0.1% formic acid, pH 3; B: methanol + 0.1% formic acid, pH 3; gradient (min/%B) 0/0 1/0 6/5 30/100 35/100 35.1/0 40/0
[8] = RP, Thermo Scientific Hypercarb, 150 × 2.1 mm, 5 µm, 0.1 mL/min, estimated dead time 3.3 min; A: water + 0.1% formic acid, pH 3; B: methanol + 0.1% formic acid, pH 3; gradient (min/%B) 0/5 5/5 20/100 35/100 35.1/5 45/5
[9] = RP, Waters CORTECS T3, 100 × 2.1 mm, 2.7 µm, 0.3 mL/min, estimated dead time 0.73 min; A: water + 0.1% formic acid, pH 3; B: methanol + 0.1% formic acid, pH 3; gradient (min/%B) 0/5 5/5 25/95 25.1/100 35/100 35.1/5 45/5
[10] = RP, Waters ACQUITY UPLC BEH C18, 100 × 2.1 mm, 1.7 µm, 0.2 mL/min, estimated dead time 1.1 min; A: water + 0.025% formic acid + 20 mM ammonium acetate + 0.055% ammonium hydroxide, pH 7; B: methanol; gradient (min/%B) 0/5 5/5 25/100 30/100 30.1/5 35/5
[11] = RP, Waters CORTECS T3, 100 × 2.1 mm, 2.7 µm, 0.1 mL/min, estimated dead time 2.2 min; A: water + 0.1% formic acid, pH 3; B: methanol + 0.1% formic acid, pH 3; gradient (min/%B) 0/5 5/5 25/95 25.1/100 35/100 35.1/5 45/5
[12] = RP, Waters CORTECS T3, 100 × 2.1 mm, 2.7 µm, 0.3 mL/min, estimated dead time 0.73 min; A: water + 0.1% formic acid, pH 3; B: methanol + 0.1% formic acid, pH 3; gradient (min/%B) 0/5 5/5 25/100 30/100 30.1/5 35/5
[13] = HILIC, Waters XBridge BEH Amide, 100 × 2.1 mm, 2.5 µm, 0.5 mL/min, estimated dead time 0.44 min; A: water + 0.1% acetic acid + 10 mM ammonium acetate, pH 4; B: 5% water + 95% acetonitrile + 0.1% acetic acid + 10 mM ammonium acetate, pH 4; gradient (min/%B) 0/95 5/95 20/57 25/57 30/95 40/95
[14] = RP, Waters ACQUITY UPLC BEH C18, 100 × 2.1 mm, 1.7 µm, 0.1 mL/min, estimated dead time 2.2 min; A: water + 0.045% formic acid + 0.11% ammonium hydroxide, pH 7; B: methanol; gradient (min/%B) 0/5 5/5 25/95 25.1/100 35/100 35.1/5 45/5
[15] = RP, Waters ACQUITY UPLC BEH C18, 100 × 2.1 mm, 1.7 µm, 0.2 mL/min, estimated dead time 1.1 min; A: water + 0.025% formic acid + 20 mM ammonium acetate + 0.055% ammonium hydroxide, pH 7; B: methanol; gradient (min/%B) 0/5 5/5 25/100 30/100 30.1/5 35/5; remark: listed apart in the source
[16] = RP, Waters CORTECS T3, 100 × 2.1 mm, 2.7 µm, 0.1 mL/min, estimated dead time 2.2 min; A: water + 0.1% formic acid, pH 3; B: methanol + 0.1% formic acid, pH 3; gradient (min/%B) 0/0 1/0 6/5 30/100 35/100 35.1/0 40/0
[17] = HILIC, Merck SeQuant ZIC-HILIC, 150 × 2.1 mm, 5 µm, 0.75 mL/min, estimated dead time 0.44 min; A: water + 0.1% acetic acid + 10 mM ammonium acetate, pH 4; B: 5% water + 95% acetonitrile + 0.1% acetic acid + 10 mM ammonium acetate, pH 4; gradient (min/%B) 0/95 5/95 20/57 25/57 30/95 40/95
[18] = RP, Waters CORTECS T3, 100 × 2.1 mm, 2.7 µm, 0.25 mL/min, estimated dead time 0.88 min; A: water + 0.1% formic acid, pH 3; B: methanol + 0.1% formic acid, pH 3; gradient (min/%B) 0/0 1/0 6/5 30/100 35/100 35.1/0 40/0
[19] = RP, Waters CORTECS T3, 100 × 2.1 mm, 2.7 µm, 0.2 mL/min, estimated dead time 1.1 min; A: water + 0.045% formic acid + 0.11% ammonium hydroxide, pH 7; B: methanol; gradient (min/%B) 0/5 5/5 25/95 25.1/100 35/100 35.1/5 45/5
[20] = RP, Waters ACQUITY UPLC BEH C18, 100 × 2.1 mm, 1.7 µm, 0.2 mL/min, estimated dead time 1.1 min; A: water + 0.1% formic acid, pH 3; B: methanol + 0.1% formic acid, pH 3; gradient (min/%B) 0/5 5/5 25/100 30/100 30.1/5 35/5
[21] = RP, Waters CORTECS T3, 100 × 2.1 mm, 2.7 µm, 0.2 mL/min, estimated dead time 1.1 min; A: water + 0.1% formic acid, pH 3; B: methanol + 0.1% formic acid, pH 3; gradient (min/%B) 0/5 5/5 25/95 25.1/100 35/100 35.1/5 45/5
[22] = RP, Waters ACQUITY UPLC BEH C18, 100 × 2.1 mm, 1.7 µm, 0.1 mL/min, estimated dead time 2.2 min; A: water + 0.1% formic acid, pH 3; B: methanol + 0.1% formic acid, pH 3; gradient (min/%B) 0/5 5/5 25/95 25.1/100 35/100 35.1/5 45/5; remark: listed apart in the source

| LC retention time [1] [min] | LC retention time [2] [min] | LC retention time [3] [min] | LC retention time [5] [min] | LC retention time [6] [min] | LC retention time [7] [min] | LC retention time [9] [min] | LC retention time [11] [min] | LC retention time [12] [min] | LC retention time [14] [min] | LC retention time [15] [min] | LC retention time [16] [min] | LC retention time [18] [min] | LC retention time [19] [min] | Structure (SMILES) | LC retention time [8] [min] | other results |
| --- | --- | --- | --- | --- | --- | --- | --- | --- | --- | --- | --- | --- | --- | --- | --- | --- |
| 29.5 | 30.7 | 30.2 | 31.9 | 25.3 | 29.7 | 26.1 | 30.1 | 25.1 | 29.5 | 25.4 | 26.5 | 30.1 | 25.9 | C=Cc1c(C)c2cc3[nH]c(cc4nc(cc5nc(cc1[nH]2)C(C)=C5CCC(=O)O)C(CCC(=O)O)=C4C)c(C)c3C=C [PROTOPORPHYRIN] | – | – |
| 2.74 | 1.34 | 2.66 | 1.83 | 0.89 | 0.92 | 0.9 | – | – | – | 7.17 | – | 1.09 | – | NC(=O)C1CCCN1C(=O)C(Cc1cnc[nH]1)NC(=O)C1CCC(=O)N1 (stereo not given) [THYROTROPIN RELEASING HORMONE] | 15.7 | LC retention time [20]: 1.38 min; LC retention time [21]: 2.67 min; LC retention time [22]: 2.7 min |

Second part, the compound before the results:

| Structure (SMILES) | LC retention time [1] [min] | LC retention time [2] [min] | LC retention time [3] [min] | LC retention time [5] [min] | LC retention time [6] [min] | LC retention time [7] [min] | LC retention time [9] [min] | LC retention time [11] [min] | LC retention time [12] [min] | LC retention time [14] [min] | LC retention time [15] [min] | LC retention time [16] [min] | LC retention time [18] [min] | LC retention time [19] [min] | LC retention time [8] [min] | other results |
| --- | --- | --- | --- | --- | --- | --- | --- | --- | --- | --- | --- | --- | --- | --- | --- | --- |
| CC1NCCc2cc(O)c(O)cc21 (stereo not given) [1-METHYL-6,7-DIHYDROXY-1,2,3,4-TETRAHYDROISOQUINOLINE] | 2.74 | 1.34 | 2.66 | 1.83 | 0.93 | 0.92 | 0.9 | – | – | – | – | – | – | – | 17.8 | LC retention time [4]: 8.92 min |
| NC(=O)Cc1c[nH]c2ccccc12 [INDOLE-3-ACETAMIDE] | 15.4 | 13 | 15.6 | 14.5 | 11.1 | 11.4 | 9.92 | 15.2 | 9.85 | 15.6 | 11.9 | 11.6 | 12.1 | 11.7 | – | LC retention time [10]: 11.9 min; LC retention time [13]: 0.91 min; LC retention time [17]: 0.95 min |
| O=C([O-])Cc1c[nH]c2ccccc12 [INDOLE-3-ACETATE] | 18.2 | 16.4 | 18.6 | 17.9 | 13.8 | 14.8 | 13.1 | 18.2 | 12.9 | 11.3 | – | 14.7 | 15.5 | – | – | – |
